# Columns and labels:
# Test in all cases: relative viability (nuclei count vs DMSO), 5 days (fraction); higher = more cells survive
# [1] = compound: C1CN(CCC1C(C2=CC3=C(C=C2)OCO3)(C4=CC5=C(C=C4)OCO5)O)C(=O)OC6=CC=C(C=C6)[N+](=O)[O-] [JZL-184]
# Outline: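 Viability was read as treated-well nuclei divided by vehicle-well nuclei, using the median across plates. Lung cancer cell lines in 1536-well plates were kept overnight at 37 °C, pinned with five √10-spaced library-drug doses, and after 5 days were Hoechst-stained, imaged at 4× and counted in MetaXpress. Plates passed only with control CV below 25% and at least one doubling.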
# [2] = compound: C1CN(CCC1C(C2=CC3=C(C=C2)OCO3)(C4=CC5=C(C=C4)OCO5)O)C(=O)OC6=CC=C(C=C6)[N+](=O)[O-] [JZL-184] + Nc1ncn([C@H]2C[C@H](O)[C@@H](CO)O2)c(=O)n1 [Decitabine] (partner 2 µM)
# Outline: (§1)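 Lung cancer cell lines in 1536-well plates got either a single drug or a fixed anchor-drug dose together with five library-drug doses (not always all listed) in √10 steps, by pin tool, on the day after seeding. Nuclei were counted after 5 days, and relative viability is the treated-to-vehicle ratio of nuclei counts. Values are medians of duplicate plates.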
# [3] = compound: C1CN(CCC1C(C2=CC3=C(C=C2)OCO3)(C4=CC5=C(C=C4)OCO5)O)C(=O)OC6=CC=C(C=C6)[N+](=O)[O-] [JZL-184] + COc1cccc2cc(-c3nc([C@H]4CC[C@H](C(=O)O)CC4)n4ncnc(N)c34)[nH]c12 [OSI-027] (partner 0.5 µM)
# Outline: as §1
# [4] = compound: C1CN(CCC1C(C2=CC3=C(C=C2)OCO3)(C4=CC5=C(C=C4)OCO5)O)C(=O)OC6=CC=C(C=C6)[N+](=O)[O-] [JZL-184] + CS(=O)(=O)N1CCN(Cc2cc3nc(-c4cccc5[nH]ncc45)nc(N4CCOCC4)c3s2)CC1 [Pictilisib] (partner 1 µM)
# Outline: as §1
# [5] = compound: C1CN(CCC1C(C2=CC3=C(C=C2)OCO3)(C4=CC5=C(C=C4)OCO5)O)C(=O)OC6=CC=C(C=C6)[N+](=O)[O-] [JZL-184] + CC1(C)CCC(c2ccc(Cl)cc2)=C(CN2CCN(c3ccc(C(=O)NS(=O)(=O)c4ccc(N[C@H](CCN5CCOCC5)CSc5ccccc5)c(S(=O)(=O)C(F)(F)F)c4)cc3)CC2)C1 [Navitoclax] (partner 0.5 µM)
# Outline: as §1
Cell Line,relative viability ([1]; 0.04 µM),relative viability ([1]; 0.4 µM),relative viability ([1]; 1.265 µM),relative viability ([1]; 4 µM),relative viability ([2]; first compound 0.04 µM),relative viability ([2]; first compound 0.4 µM),relative viability ([2]; first compound 1.265 µM),relative viability ([2]; first compound 4 µM),relative viability ([3]; first compound 0.04 µM),relative viability ([3]; first compound 0.4 µM),relative viability ([3]; first compound 1.265 µM),relative viability ([3]; first compound 4 µM),relative viability ([4]; first compound 0.04 µM),relative viability ([4]; first compound 1.265 µM),relative viability ([4]; first compound 4 µM),relative viability ([5]; first compound 0.04 µM),relative viability ([5]; first compound 1.265 µM),relative viability ([5]; first compound 4 µM),relative viability ([4]; first compound 0.4 µM),relative viability ([5]; first compound 0.4 µM)
LCLC-97TM1,1.13,0.852,1.05,0.84,0.228,0.2,0.236,0.216,0.493,0.393,0.504,0.559,0.259,0.237,0.201,0.362,0.663,0.269,–,–
LK-2,1.13,0.928,1.21,0.944,0.254,0.198,0.273,0.304,0.195,0.193,0.249,0.21,0.511,0.632,0.645,0.941,1.06,0.77,0.6,0.821
LOU-NH91,1.02,0.879,0.984,0.945,0.814,0.837,0.863,0.749,0.742,0.684,0.788,0.712,0.535,0.514,0.532,0.763,0.886,0.718,0.471,0.71
LU99A,1.01,0.774,1.18,0.968,1,0.902,1.01,0.843,0.327,0.293,0.269,0.284,0.353,0.329,0.313,0.714,0.804,0.463,0.315,0.588
LXF-289,1.08,0.926,1.02,0.959,0.438,0.364,0.353,0.388,0.819,0.776,0.927,0.734,0.865,0.842,0.779,0.973,0.91,0.928,0.71,0.832
NCI-H23,1.14,0.767,1.18,0.998,0.275,–,0.266,0.328,0.529,0.538,0.656,0.65,0.561,0.538,0.492,1.01,0.837,0.777,0.432,0.63
NCI-H322M,0.951,0.926,0.982,0.774,0.661,0.684,0.678,0.668,0.555,0.488,0.55,0.52,0.494,0.554,0.495,1.18,1.32,1.31,0.472,1.26
NCI-H441,1.14,0.814,1.02,0.998,0.237,0.249,0.188,0.281,0.604,0.541,0.591,0.601,0.631,0.607,0.423,0.802,0.796,0.608,0.409,0.59
NCI-H460,1.06,0.884,0.974,0.975,0.629,0.45,0.463,0.442,1.03,0.678,0.575,0.632,0.385,0.404,0.374,1.37,1.02,1.12,0.332,1.02
NCI-H520,0.793,0.924,1.07,0.93,0.546,0.545,0.503,0.477,0.233,0.229,0.257,0.213,0.351,0.311,0.245,1.19,1.15,1.04,0.221,1.13
NCI-H596,1.21,0.875,1.01,0.932,1.1,0.96,1.01,0.984,0.749,0.591,0.71,0.696,0.397,0.429,0.356,0.936,0.93,0.791,0.393,0.993
NCI-H647,1.04,0.945,1.06,0.887,0.455,0.302,0.353,0.426,0.625,0.698,0.75,0.51,0.495,0.566,0.468,1.24,1.12,1.07,0.294,1.12
NCI-H727,0.949,0.793,1.09,0.781,0.928,0.663,0.626,1.13,0.665,0.592,0.591,0.582,0.505,0.333,0.473,0.383,0.543,0.422,0.393,0.455
NCI-H838,1.11,1.03,1.04,0.984,0.551,0.475,0.465,0.467,0.434,0.368,0.441,0.389,0.53,0.499,0.482,1.39,1.21,1.11,0.449,1.22
NCI-H1355,0.984,0.927,1.06,0.946,0.349,0.34,0.36,0.347,0.393,0.421,0.494,0.386,0.431,0.555,0.396,0.848,1.08,0.861,0.357,0.925
NCI-H1395,0.862,0.84,1.03,0.816,0.756,0.656,0.792,0.64,0.623,0.519,0.69,0.581,0.596,0.761,0.551,1.49,1.18,1.02,0.536,1.22
NCI-H1437,1.04,0.948,1.02,0.961,0.649,0.611,0.585,0.561,0.88,0.849,0.849,0.866,0.466,0.366,0.468,1.1,0.965,1.06,0.408,0.959
NCI-H1650,1.07,0.895,1.16,0.915,0.405,0.464,0.471,0.425,0.674,0.504,0.837,0.608,0.734,0.741,0.696,1.64,1.39,1.06,0.53,1.08
NCI-H1651,1.08,0.907,1,0.967,0.667,0.358,0.428,0.623,0.684,0.664,0.855,0.794,0.842,0.536,0.499,1.07,1.07,1.12,0.533,0.99
NCI-H1666,1.01,1.01,0.967,1.04,0.77,0.557,0.701,0.792,0.974,0.908,0.903,0.866,0.483,0.5,0.491,1.02,1.16,1.02,0.517,0.825
NCI-H1734,1.12,0.865,1.03,0.963,0.536,0.494,0.512,0.501,0.621,0.615,0.718,0.594,0.519,0.505,0.482,0.991,0.901,0.843,0.471,0.799
NCI-H1755,1.04,0.988,0.985,0.956,0.751,0.701,0.71,0.704,0.672,0.699,0.709,0.745,0.432,0.545,0.401,1.01,1.01,0.918,0.339,0.954
NCI-H1792,1.03,0.836,0.883,1.18,0.668,0.503,0.529,0.597,0.683,0.744,0.779,0.62,0.304,0.302,0.28,0.889,0.675,0.612,0.232,0.624
NCI-H1793,0.771,0.735,1.1,0.845,0.533,0.441,0.507,0.462,0.26,0.263,0.319,0.259,0.295,0.344,0.31,0.351,0.502,0.38,0.214,0.426
NCI-H1915,1.09,0.956,1.1,0.976,0.243,0.266,0.272,0.266,0.659,0.604,0.698,0.585,1.05,1.1,0.918,0.819,0.794,0.722,0.914,0.749
NCI-H1944,0.954,0.921,1.03,1.01,0.451,0.416,0.407,0.391,0.421,0.397,0.448,0.412,0.345,0.34,0.335,0.948,1.08,1.02,0.318,1.08
NCI-H1975,0.996,0.938,1.01,0.915,0.429,0.368,0.413,0.397,0.842,0.759,0.764,0.654,0.347,0.304,0.287,1.3,1.2,1.05,0.281,0.967
NCI-H1993,0.943,0.982,1.08,0.916,0.572,0.588,0.577,0.559,0.523,0.498,0.497,0.532,0.721,0.847,0.794,0.906,1.06,1.03,0.864,0.884
NCI-H2009,1.12,0.942,1.02,1,0.425,0.385,0.363,0.446,0.764,0.574,0.694,0.653,0.985,0.914,0.844,1.18,1.17,1.17,0.672,0.951
